# Tests used:
# ErbB2 = test: Western blot analysis of ErbB2 signaling in ErbB2+ breast cancer cells; format: cell-based, human
# Description: (§1) Whole cell extracts were prepared by scraping cells off petri dishes, washing cell pellets 2× in phosphate buffered saline (PBS), and then re-suspending pellets in two-packed-cell volumes of RIPA buffer (150 mM NaCl, 50 mM Tris-HCl, pH 7.5, 0.25% (w/v) deoxycholate, 1% NP-40, 5 mM sodium orthovanadate, 2 mM sodium fluoride, and a protease inhibitor cocktail). Protein concentrations were determined using a modification of the Bradford method (Bio-Rad Labs, Hercules, Calif.). For Western blot analysis, equal amounts of proteins (25 to 50 μg) were resolved by either 7.5% or 4-15% gradient SDS polyacrylamide gel electrophoresis under reducing conditions as previously described. Proteins were transferred to nitrocellulose membranes and probed with primary antibodies specific for proteins of interest. After extensive washing, membranes were incubated with a secondary IRDye 800 conjugated anti-rabbit or mouse IgG, or Alexa Fluor 680 anti-rabbit IgG and proteins were visualized using the LI-COR Odyssey Infrared Imaging System (LI-COR, Inc., Lincoln, Nebr.).
# [1] = tested on: ErbB2+ breast cancer cell lines (BT474; SKBR3); test: Cell growth and viability assay (WST-1); format: cell-based, human
# Description: (§2) UV irradiation was carried out in 6 or 96 well plate format in a UV Stratalinker 1800 (Statagene, LA Jolla, Calif.) at the UV doses indicated in the figures. Cell growth and viability assays were performed in a 96-well plate format in a final volume of 100 μl/well using the cell proliferation reagent WST-1 from Roche Diagnostics (Mannheim, Germany), as previously described. Details of the apoptosis assay have been previously described. Briefly, cells were treated in 12-well plates with 8MOP, UV irradiation, or lapatinib at the treatment conditions indicated in the Figure legends. Cells were harvested with trypsin-EDTA, and 5000 cells in final volume of 50 μl were sampled in 96-well microplates. Cells were directly stained with annexin V-PE and nexin 7-AAD in 1× Nexin Buffer in a 200 μl final reaction volume. After incubating at room temperature for 20 min, the reaction samples were analyzed in the Guava PCA-96-system (Guava Technology Inc. Hayward, Calif.).
# rBT474 and rSKBR3 cells = test: Cell growth and viability assay in lapatinib resistant cells; format: cell-based, human; conditions: PUVA; cells maintained in 1 μM lapatinib; dose-dependent
# From the text: ErbB2+(BT474; SKBR3) and ErbB2 negative (MCF-7; T47D) human breast cancer cell lines, and the human foreskin fibroblast (HFF) cell line were obtained from the American Type Culture Collection (Manassas, Va.). Lapatinib resistant breast cancer cells (rBT474; rSKBR3) were generated and maintained in culture as previously described. Cells were maintained in RPMI-1640 supplemented with 10% fetal bovine serum and L-glutamine from GIBCO (Grand Island, N.Y.) growing in a humidified atmosphere of 5% CO2 at 37° C. IRDye 800 conjugated affinity purified anti-rabbit IgG and anti-mouse IgG were from Rockland (Gilbertsville, Pa.). Alexa Fluor 680 goat anti-rabbit IgG were purchased from Molecular Probes (Eugene, Oreg.). Anti-PARP (Poly (ADP-ribose) Polymerase) monoclonal antibody was from BD PharMingen (San Jose, Calif.). 8-Methoxypsoralen (8MOP) and the 4G10 anti-phosphotyrosine (p-tyr) antibody were purchased from Sigma-Aldrich (St. Louis, Mo.). Monoclonal antibodies to c-ErbB2 and EGFR were purchased from Neo Markers (Union City, Calif.). […]
# UV irradiation was carried out in 6 or 96 well plate format in a UV Stratalinker 1800 (Statagene, LA Jolla, Calif.) at the UV doses indicated in the figures. […] After incubating at room temperature for 20 min, the reaction samples were analyzed in the Guava PCA-96-system (Guava Technology Inc. Hayward, Calif.).
# MCF7 cells = test: Cell growth and viability assay (WST-1); format: cell-based, human; conditions: PUVA, 2.5 and 5 μM 8MOP; compared with ErbB2+ lines
# Description: as §2
# T47D cells = test: Growth and apoptosis in T47D and p85ErbB2 transfected T47D cells; format: cell-based, human
# Description: as §2
# (§3) The c-terminal fragment (p85^ErbB2) was generated based on ErbB2 open reading frames and sub-cloned into the pcDNA 3.1 (+) as previously described. HER2 negative T47D breast cancer cells were transfected with the p85 expressing vector using the Lipofectamine™ 2000 Reagent from Invitrogen (Carlsbad, Calif.) as previously described. […]
# p85^ErbB2 = test: Western blot of phospho-p85ErbB2 in stably transfected T47D cells; format: cell-based, human; conditions: p85 expressing T47D cells; 5 μM lapatinib or 5 μM 8MOP 4 hr, then UV irradiation
# Description: as §1, §3
# [2] = tested on: human foreskin fibroblast cell line (HFF); test: Cell growth and viability assay (WST-1); format: cell-based; conditions: PUVA, 2.5 and 5 μM 8MOP; compared with ErbB2+ lines
# Description: as §2
# [3] = tested on: ErbB2+ breast cancer cells (BT474; SKBR3); test: Apoptosis assay (annexin V-PE / 7-AAD); format: cell-based, human
# Description: as §2
# [4] = tested on: EGFR, ErbB3, Akt, PARP in rBT474 and rSKBR3; test: Western blot analysis in lapatinib resistant cells; format: cell-based, human
# Description: as §1
smiles,measurement,setting,value
Cc1c2occc2cc2c1oc(=O)c1cnccc12 [7-methylpyridopsoralen],phosphorylated and total ErbB2 protein expression,ErbB2; upon photo-activation (UVA irradiation),inhibition
same,growth and viability of ErbB2+ breast cancer cells,"[1]; upon photo-activation (UVA irradiation), 72 hr, BT474 and SKBR3",significantly inhibited
"COc1c2occc2cc2ccc(=O)oc12 [8MOP, 8-Methoxypsoralen]",tumor cell growth and viability,rBT474 and rSKBR3 cells,significantly reduced
same,ErbB2 signaling,"ErbB2; 8MOP alone, no UV irradiation",relatively little effect
same,phosphorylated forms of Akt and Erk1/2,ErbB2; PUVA (8MOP + UVA),inhibited
same,steady-state protein levels of phosphorylated ErbB2,"ErbB2; PUVA (8MOP + UVA), dose-dependent",reduced
same,total ErbB2 protein levels,ErbB2; higher doses of PUVA therapy,reduced
same,cell viability,"[1]; 8MOP alone, no UV irradiation",relatively little effect
same,growth and viability of ErbB2+ breast cancer cell lines,"[1]; PUVA: 8MOP 4 hr pre-treatment, UVA irradiation (2J), 72 hr, dose-dependent",significantly inhibited
same,growth and viability of MCF7 cells,MCF7 cells,relatively less effect
same,antitumor effect (growth),T47D cells; T47D cells transfected with empty vector alone,antitumor effect
same,tumor cell apoptosis,T47D cells; p85 expressing T47D cells,triggering tumor cell apoptosis
same,p85ErbB2 phosphorylation,p85^ErbB2,markedly inhibited
same,growth and viability of HFF cells,[2],relatively less effect
same,apoptosis,"[3]; PUVA: 8MOP + UVA irradiation (2J), 72 hr",induction of apoptosis
same,PARP cleavage product,[4]; PUVA-treated lapatinib resistant tumor cells,increased
same,"expression of phosphorylated EGFR (Y992), ErbB3 (Y1197) and Akt (T308)",[4]; PUVA-treated rBT474 and rSKBR3,reduction
same,total EGFR and ErbB3 protein expression,[4]; PUVA-treated rBT474 and rSKBR3,markedly reduced
CS(=O)(=O)CCNCc1ccc(-c2ccc3ncnc(Nc4ccc(OCc5cccc(F)c5)c(Cl)c4)c3c2)o1 [lapatinib],p85ErbB2 phosphorylation,p85^ErbB2,not inhibited
CCOc1cc2ncc(C#N)c(Nc3ccc(OCc4ccccn4)c(Cl)c3)c2cc1NC(=O)/C=C/CN(C)C [neratinib],total ErbB2 and ErbB3 protein expression,"ErbB2; neratinib in combination with UVA irradiation alone, more pronounced in SKBR3",further loss
same,p-Akt (S473) expression,ErbB2; neratinib treatment alone,loss
same,total ErbB2 and ErbB3 protein levels,ErbB2; neratinib treatment alone,marked reduction
same,cell viability,"[1]; combination of 8-MOP, UVA irradiation and neratinib, each at sub-lethal doses",significantly enhanced inhibition
same,apoptosis in ErbB2+ breast cancer cells,[3]; neratinib at sub-lethal doses combined with PUVA,significantly increased

# Reference: US9439897B2, “Use of psoralen derivatives and combination therapy for treatment of cell proliferation disorders” (IMMUNOLIGHT, LLC, priority 2014, dated 2016)
